What was measured:
[1] = biological target: T1, C-C chemokine receptor type 4 (Homo sapiens, UniProt P51679); assay type: cell membranes, Membrane; conditions: chem-1; further: in other assays of this panel Not Active means under 50% inhibition at 10 µM
T1 sequence (P51679 whole entry): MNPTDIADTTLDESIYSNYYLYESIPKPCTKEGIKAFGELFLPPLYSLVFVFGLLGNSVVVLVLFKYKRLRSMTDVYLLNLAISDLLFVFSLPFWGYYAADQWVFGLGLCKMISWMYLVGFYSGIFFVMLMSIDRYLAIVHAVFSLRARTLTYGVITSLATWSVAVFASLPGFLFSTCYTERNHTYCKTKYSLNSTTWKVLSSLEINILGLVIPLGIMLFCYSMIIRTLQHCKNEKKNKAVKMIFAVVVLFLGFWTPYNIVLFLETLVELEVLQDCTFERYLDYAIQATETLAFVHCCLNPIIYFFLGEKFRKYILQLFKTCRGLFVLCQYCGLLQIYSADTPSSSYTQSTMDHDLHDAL

[2] = biological target: T2, Cysteinyl leukotriene receptor 1 (Homo sapiens, UniProt Q9Y271); assay type: cell membranes, CHO-K1, Membrane; conditions: cho-k1; further: in other assays of this panel Not Active means under 50% inhibition at 10 µM
T2 sequence (Q9Y271 whole entry): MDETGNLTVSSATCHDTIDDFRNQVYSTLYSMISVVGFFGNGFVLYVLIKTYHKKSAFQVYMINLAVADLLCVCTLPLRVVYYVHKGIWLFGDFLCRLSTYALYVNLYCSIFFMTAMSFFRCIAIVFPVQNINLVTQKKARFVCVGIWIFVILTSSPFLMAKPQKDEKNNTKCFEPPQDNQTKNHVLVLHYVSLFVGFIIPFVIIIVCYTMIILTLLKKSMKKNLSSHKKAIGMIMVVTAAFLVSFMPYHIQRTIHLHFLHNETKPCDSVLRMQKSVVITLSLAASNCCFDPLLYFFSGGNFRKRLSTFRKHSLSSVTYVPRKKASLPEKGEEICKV

[3] = biological target: T3, Polyunsaturated fatty acid lipoxygenase ALOX15 (Oryctolagus cuniculus, UniProt P12530); test: biochemical; assay type: tissue-based, Reticulocytes; conditions: reticulocytes;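 further: inhibition of 15-lipoxygenase enzyme activity measured with linoleic acid as the substrate; in other assays of this panel Not Active means under 50% inhibition at 10 µM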
T3 sequence (P12530 whole entry): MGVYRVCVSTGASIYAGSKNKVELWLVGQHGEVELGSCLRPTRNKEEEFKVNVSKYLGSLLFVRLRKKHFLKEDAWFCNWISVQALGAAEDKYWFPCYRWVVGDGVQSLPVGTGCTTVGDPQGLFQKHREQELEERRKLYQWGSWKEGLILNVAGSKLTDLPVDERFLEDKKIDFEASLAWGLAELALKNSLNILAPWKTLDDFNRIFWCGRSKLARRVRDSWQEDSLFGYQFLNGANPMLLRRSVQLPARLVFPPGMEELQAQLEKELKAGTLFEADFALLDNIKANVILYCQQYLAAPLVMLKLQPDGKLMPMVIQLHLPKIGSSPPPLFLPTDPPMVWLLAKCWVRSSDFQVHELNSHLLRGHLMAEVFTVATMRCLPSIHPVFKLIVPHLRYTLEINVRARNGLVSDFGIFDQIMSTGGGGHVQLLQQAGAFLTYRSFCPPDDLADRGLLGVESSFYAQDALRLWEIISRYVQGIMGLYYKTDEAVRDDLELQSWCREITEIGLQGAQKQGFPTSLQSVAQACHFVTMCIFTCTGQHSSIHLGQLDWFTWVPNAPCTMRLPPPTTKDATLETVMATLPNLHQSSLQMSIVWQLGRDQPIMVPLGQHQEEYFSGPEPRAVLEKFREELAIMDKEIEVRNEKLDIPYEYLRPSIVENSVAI

[4] = biological target: Melanocortin receptor 5 (Homo sapiens, UniProt P33032); assay type: cell membranes, HEK293, Membrane; conditions: hek293; further: in other assays of this panel Not Active means under 50% inhibition at 10 µM
Melanocortin receptor 5, sequence (P33032 whole entry): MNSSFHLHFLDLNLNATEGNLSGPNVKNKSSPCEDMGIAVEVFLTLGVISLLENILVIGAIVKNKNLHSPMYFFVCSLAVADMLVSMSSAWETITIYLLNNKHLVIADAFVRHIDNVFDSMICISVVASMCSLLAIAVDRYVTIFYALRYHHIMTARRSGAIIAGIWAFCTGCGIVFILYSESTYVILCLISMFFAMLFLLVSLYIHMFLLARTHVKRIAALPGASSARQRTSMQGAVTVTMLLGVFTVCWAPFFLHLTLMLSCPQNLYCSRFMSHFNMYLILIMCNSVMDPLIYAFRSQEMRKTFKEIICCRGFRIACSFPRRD

[5] = biological target: T4, Nitric oxide synthase, inducible (Mus musculus, UniProt P29477); parameters: species or system Escherichia coli
T4 sequence (P29477 whole entry): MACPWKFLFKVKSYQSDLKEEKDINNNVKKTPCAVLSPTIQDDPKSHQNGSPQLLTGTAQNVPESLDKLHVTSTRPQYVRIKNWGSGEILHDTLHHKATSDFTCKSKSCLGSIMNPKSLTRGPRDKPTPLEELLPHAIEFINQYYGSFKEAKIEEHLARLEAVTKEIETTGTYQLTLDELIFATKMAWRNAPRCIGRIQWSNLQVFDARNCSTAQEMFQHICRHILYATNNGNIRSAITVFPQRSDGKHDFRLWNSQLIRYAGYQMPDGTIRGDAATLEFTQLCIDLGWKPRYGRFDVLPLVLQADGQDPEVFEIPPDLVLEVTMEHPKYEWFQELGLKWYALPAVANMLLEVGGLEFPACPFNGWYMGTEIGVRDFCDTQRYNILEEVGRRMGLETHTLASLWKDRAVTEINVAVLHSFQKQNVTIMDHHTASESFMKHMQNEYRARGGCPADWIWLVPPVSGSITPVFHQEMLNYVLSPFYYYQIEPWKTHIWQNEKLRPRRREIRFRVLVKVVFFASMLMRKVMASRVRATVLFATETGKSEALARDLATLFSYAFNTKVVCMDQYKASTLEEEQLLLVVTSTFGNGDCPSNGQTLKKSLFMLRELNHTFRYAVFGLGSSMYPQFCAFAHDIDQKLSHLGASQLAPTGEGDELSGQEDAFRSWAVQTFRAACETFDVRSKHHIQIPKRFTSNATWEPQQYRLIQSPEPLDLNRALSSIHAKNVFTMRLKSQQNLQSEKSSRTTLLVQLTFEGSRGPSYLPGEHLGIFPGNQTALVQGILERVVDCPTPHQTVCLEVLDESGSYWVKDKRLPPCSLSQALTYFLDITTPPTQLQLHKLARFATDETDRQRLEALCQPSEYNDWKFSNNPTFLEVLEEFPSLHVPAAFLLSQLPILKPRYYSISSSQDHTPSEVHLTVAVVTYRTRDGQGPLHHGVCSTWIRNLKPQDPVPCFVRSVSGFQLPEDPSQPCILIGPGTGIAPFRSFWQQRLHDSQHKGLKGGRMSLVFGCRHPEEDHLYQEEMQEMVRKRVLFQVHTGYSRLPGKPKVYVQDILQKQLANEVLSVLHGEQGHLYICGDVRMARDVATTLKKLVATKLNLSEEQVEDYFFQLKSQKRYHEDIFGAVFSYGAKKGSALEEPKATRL

[6] = biological target: Mu-type opioid receptor (Homo sapiens, UniProt P35372); test: DRUGMATRIX: Opiate mu (OP3, MOP) radioligand binding (ligand: [3H] Diprenorphine); assay type: cell membranes, CHO-K1, Membrane; conditions: cho-k1; Not Active = under 50% inhibition at 10 µM
Mu-type opioid receptor, sequence (P35372 whole entry): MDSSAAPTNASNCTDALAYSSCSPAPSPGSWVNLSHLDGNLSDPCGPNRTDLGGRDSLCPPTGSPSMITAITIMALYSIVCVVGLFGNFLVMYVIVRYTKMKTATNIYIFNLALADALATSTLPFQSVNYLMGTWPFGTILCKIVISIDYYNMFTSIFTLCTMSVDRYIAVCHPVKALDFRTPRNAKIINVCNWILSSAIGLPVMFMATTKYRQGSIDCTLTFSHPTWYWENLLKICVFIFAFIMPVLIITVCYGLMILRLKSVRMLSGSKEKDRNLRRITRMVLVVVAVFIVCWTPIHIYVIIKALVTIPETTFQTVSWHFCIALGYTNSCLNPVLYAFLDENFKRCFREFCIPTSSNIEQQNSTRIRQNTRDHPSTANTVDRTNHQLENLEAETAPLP

[7] = DRUGMATRIX: Phorbol Ester radioligand binding (ligand: [3H] PDBu); assay type: cell membranes, Mus musculus, ICR, Brain, Membrane; conditions: Not Active = under 50% inhibition at 10 µM
[8] = biological target: Protein phosphatase 3 catalytic subunit alpha (Homo sapiens, UniProt Q08209); parameters: species or system Escherichia coli
[9] = DRUGMATRIX: Purinergic P2X radioligand binding (ligand: [3H] alpha, beta-Methylene-ATP); assay type: cell membranes, Oryctolagus cuniculus, New Zealand albino, Urinary bladder, Membrane; conditions: Not Active = under 50% inhibition at 10 µM

CC(C)n1c(/C=C/C(O)CC(O)CC(=O)O)c(-c2ccc(F)cc2)c2ccccc21 (centres undefined) [FLUVASTATIN]
Not Active: IC50 [1] | IC50 [2] | IC50 [3] | IC50 [4] | IC50 [5] | IC50 [6] | IC50 [7] | Ki [7] | IC50 [8] | IC50 [9] | Ki [9]

O=C1OCCN1/N=C/c1ccc([N+](=O)[O-])o1 [FURAZOLIDONE]
Not Active: IC50 [1] | IC50 [2] | IC50 [3] | IC50 [4] | IC50 [5] | IC50 [6] | IC50 [7] | Ki [7] | IC50 [8] | IC50 [9] | Ki [9]

NCC1(CC(=O)O)CCCCC1 [GABAPENTIN]
Not Active: IC50 [1] | IC50 [2] | IC50 [3] | IC50 [4] | IC50 [5] | IC50 [6] | IC50 [7] | Ki [7] | IC50 [8] | IC50 [9] | Ki [9]

CC[N+](CC)(CC)CCOc1cccc(OCC[N+](CC)(CC)CC)c1OCC[N+](CC)(CC)CC.[I-].[I-].[I-] [GALLAMINE TRIETHIODIDE]
Not Active: IC50 [1] | IC50 [2] | IC50 [3] | IC50 [4] | IC50 [5] | IC50 [6] | IC50 [7] | Ki [7] | IC50 [8] | IC50 [9] | Ki [9]

Nc1nc2c(ncn2COC(CO)CO)c(=O)[nH]1 [GANCICLOVIR]
Not Active: IC50 [1] | IC50 [2] | IC50 [3] | IC50 [4] | IC50 [5] | IC50 [6] | IC50 [7] | Ki [7] | IC50 [8] | IC50 [9] | Ki [9]

COc1c(N2CCNC(C)C2)c(F)cc2c(=O)c(C(=O)O)cn(C3CC3)c12 (centres undefined) [GATIFLOXACIN]
Not Active: IC50 [1] | IC50 [2] | IC50 [3] | IC50 [4] | IC50 [5] | IC50 [6] | IC50 [7] | Ki [7] | IC50 [8] | IC50 [9] | Ki [9]

NCC(=O)O [GLYCINE]
Not Active: IC50 [1] | IC50 [2] | IC50 [3] | IC50 [4] | IC50 [5] | IC50 [6] | IC50 [7] | Ki [7] | IC50 [8] | IC50 [9] | Ki [9]

CC1(C)[C@@H](O[C@H]2O[C@H](C(=O)O)[C@@H](O)[C@H](O)[C@H]2O[C@@H]2O[C@H](C(=O)O)[C@@H](O)[C@H](O)[C@H]2O)CC[C@]2(C)[C@H]3C(=O)C=C4[C@@H]5C[C@@](C)(C(=O)O)CC[C@]5(C)CC[C@@]4(C)[C@]3(C)CC[C@@H]12 [GLYCYRRHIZIN]
Not Active: IC50 [1] | IC50 [2] | IC50 [3] | IC50 [4] | IC50 [5] | IC50 [6] | IC50 [7] | Ki [7] | IC50 [8] | IC50 [9] | Ki [9]

COC1=CC(=O)C[C@@H](C)[C@]12Oc1c(Cl)c(OC)cc(OC)c1C2=O [GRISEOFULVIN]
Not Active: IC50 [1] | IC50 [2] | IC50 [3] | IC50 [4] | IC50 [5] | IC50 [6] | IC50 [7] | Ki [7] | IC50 [8] | IC50 [9] | Ki [9]

From ChEMBL document CHEMBL1909046, “DrugMatrix in vitro pharmacology data”
